Reference: US7649002B2, “(3,5-dimethylpiperidin-1yl)(4-phenylpyrrolidin-3-yl)methanone derivatives as MCR4 agonists” (Pfizer Inc, priority 2004, dated 2010)

How the values were obtained:
human MCR4 receptor = target: T1, human MCR4 receptor (Homo sapiens, UniProt P32245); assay: MCR4 standard functional assay (Protocol C): cAMP AlphaScreen in HEK cells; format: cell-based; conditions: Table 5
T1 construct: expressed in transfected cells
Method: (§1) Stimulation of adenylate cyclase following receptor activation is a widely used measure of functional activity for a number of receptor systems. The functional assay to measure cyclic AMP (cAMP) utilises human embryonic kidney (HEK) cells that stably express the human melanocortin MCR1, MCR3 or MCR4 receptor. Activation of MCR1, MCR3 or MCR4 receptors stimulates adenylate cyclase, generating cAMP, which is measured using AlphaScreen™ (PerkinElmer assay kits.
(§2) The AlphaScreen™ cAMP assay kit consists of ‘donor beads’, ‘acceptor beads’, and biotinylated cAMP which links the different beads together. Excitation of this linked complex at […] in the Fusion™-α microplate analyser results in light emission between […].
(§3) (i) MCR1. MCR3 and MCR4 Standard Functional Assay Methodology [Assay Protocol A, B AND C Respectively]
(§4) Determination of activity against the human MCR1, MCR3 and MCR4 receptor subtypes was carried out for compounds according to the present invention using three immortalised human embryonic kidney (HEK) cell lines that had been biologically engineered to express the human melanocortin MCR1, MCR3 or MCR4 receptor subtypes. These cell lines were engineered using protocols akin to those outlined by Gouarderes et al (Gouarderes, C., (2002) Neuroscience, 115(2); 349-361).
(§5) Such-compound-induced activation of these MCR1, MCR3 or MCR4 receptors lead to the stimulation of the cellular enzyme adenylate cyclase, which in turn lead to the cellular generation, and intra-cellular accumulation, of cyclic adenosine monophosphate (cAMP). […] Intracellular levels of cAMP were quantified using the commercially available AlphaScreen™ assay kits from PerkinElmer. A detailed assay protocol and an explanation of the concept underlying this kit is available through the PerkinElmer website (www.perkinelmer.com). The protocol listed below provides a summary this information.
(§6) The quantity of intracellular cAMP produced by compound-induced activation of the MCR1, MCR3 and MCR4 receptors in these three cell lines was measured using a Fusion™-α microplate analyser set to stimulate at a wavelength of 680 nm and to measure the energy emitted at wave lengths between […]. Compound-induced increases in MCR1, MCR3 or MCR4 receptor activation were subsequently quantified as a decrease in the quantity of light emitted at wavelengths between […]. Data analysis was subsequently performed using a curve-fitting program and the apparent potency of the test compound (expressed as an EC50 and defined as the effective compound concentration that elicited 50% of the maximum compound-induced response) extrapolated from the fitted curve.
Stimulation buffer (as per AlphaScreen™ protocol): HBSS supplemented with 0.5 mM IBMX, 5 mM HEPES, 0.1% (w/v) BSA and 10 mM MgCl2. […]

human MCR3 receptor = target: T2, human MCR3 receptor (Homo sapiens, UniProt P41968); assay: MCR3 standard functional assay (Protocol B): cAMP AlphaScreen in HEK cells; format: cell-based; conditions: Table 5
T2 construct: expressed in transfected cells
Method: as §1, §2, §3, §4, §5, §6
Stimulation buffer (as per AlphaScreen™ protocol): HBSS supplemented with 0.5 mM IBMX, 5 mM HEPES, 0.1% (w/v) BSA and 10 mM MgCl2.
Lysis buffer (as per AlphaScreen™ protocol): 5 mM HEPES solution supplemented with 0.1% (w/v) BSA and 0.3% (v/v) Tween-20.
Detection mix (as per AlphaScreen™ protocol): Lysis buffer supplemented with the biotinylated cAMP (10 nM) and Donor beads (10 μg/ml) as supplied in the AlphaScreenT cAMP assay kit.
For the MCR1, MCR3 and MCR4 standard functional assay methodologies compounds were initially dissolved in DMSO to give a compound concentration of 4 mM and then further diluted for the assay in stimulation buffer to give actual concentrations 2-fold greater than that desired as the final assay concentration.
The three HEK cell lines, as detailed hereinbefore, expressing the human MCR1, MCR3 or MCR4 receptor subtypes were grown in T225 vent cap flasks containing 50 ml of growth medium (DMEM supplemented with 10% (v/v) FCS, 2 mM L-Glutamine, 25 mM HEPES and 1.0 mg/ml Geneticin) and maintained in a cell incubator at a temperature of 37° C. and in an environment containing 5% CO2. Cells were harvested when they reached 80-90% confluency by first removing the existing growth medium and then washing with PBS that had been pre-warmed to a temperature of 37° C. […]

T2 sequence (P41968 whole entry): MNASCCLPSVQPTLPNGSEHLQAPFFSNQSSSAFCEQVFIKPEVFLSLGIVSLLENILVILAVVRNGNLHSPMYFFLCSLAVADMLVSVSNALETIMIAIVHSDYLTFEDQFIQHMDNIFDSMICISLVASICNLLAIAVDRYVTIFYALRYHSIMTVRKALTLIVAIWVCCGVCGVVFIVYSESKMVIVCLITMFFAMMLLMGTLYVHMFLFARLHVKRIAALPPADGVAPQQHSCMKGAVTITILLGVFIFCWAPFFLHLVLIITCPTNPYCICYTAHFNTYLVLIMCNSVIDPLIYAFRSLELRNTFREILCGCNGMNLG
T1 sequence (P32245 whole entry): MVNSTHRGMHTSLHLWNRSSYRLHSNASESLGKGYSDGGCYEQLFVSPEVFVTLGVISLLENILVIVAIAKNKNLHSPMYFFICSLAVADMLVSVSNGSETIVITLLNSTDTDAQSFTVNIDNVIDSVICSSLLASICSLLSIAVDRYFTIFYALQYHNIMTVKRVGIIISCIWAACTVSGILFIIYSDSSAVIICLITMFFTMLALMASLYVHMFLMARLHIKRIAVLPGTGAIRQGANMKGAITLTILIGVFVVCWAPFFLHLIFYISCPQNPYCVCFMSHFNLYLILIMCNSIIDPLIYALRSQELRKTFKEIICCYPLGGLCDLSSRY

EC50 (human MCR4 receptor): 0.068 µM
Selectivity MCR3/MCR4 (human MCR3 receptor; MCR4 by Protocol C): 123
EC50 (human MCR3 receptor; Protocol B): 8.38 µM
Structure (SMILES): CCN1C[C@@H](C(=O)N2C[C@@H](C)[C@](O)(C3CCCCC3)[C@@H](C)C2)[C@H](c2ccc(F)cc2F)C1 (relative stereo) [Example 2, (3R,4R,5S)-4-Cyclohexyl-1-{[(3S*,4R*)4-(2,4-difluorophenyl)-1-ethylpyrrolidin-3-yl]carbonyl}-3,5-dimethylpiperidin-4-ol]
